Assay results published in ChEMBL document CHEMBL1151538, “Rearrangement of unsymmetrical azetidinone disulfides to 2-(heterocyclylthiomethyl)penams, a synthetic approach to new -lactamase inhibitors” (Bioorg Med Chem Lett, 1993).

Key:
[1] = biological target: T1, Beta-lactamase BRO-1 (Moraxella catarrhalis, UniProt Q59514); experiment: Inhibitory activity against Branhamella catarrhalis 89001 Class-III BRO-1 type beta-lactamase enzyme; set-up: species or system b.catarr
T1 sequence (Q59514 whole entry): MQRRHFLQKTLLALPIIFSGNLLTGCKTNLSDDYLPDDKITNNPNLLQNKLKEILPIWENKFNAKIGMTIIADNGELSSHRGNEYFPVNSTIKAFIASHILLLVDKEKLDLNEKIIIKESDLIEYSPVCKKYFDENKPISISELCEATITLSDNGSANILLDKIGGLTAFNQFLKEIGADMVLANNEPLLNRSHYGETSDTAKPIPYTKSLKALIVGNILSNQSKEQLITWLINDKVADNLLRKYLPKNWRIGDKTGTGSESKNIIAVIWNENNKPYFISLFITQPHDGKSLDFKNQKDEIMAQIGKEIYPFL

[2] = biological target: T2, Beta-lactamase SHV-1 (Escherichia coli, UniProt P0AD63); experiment: Inhibitory activity against Escherichia coli HA208 Class-III SHV-1 type beta-lactamase enzyme
T2 sequence (P0AD63 whole entry): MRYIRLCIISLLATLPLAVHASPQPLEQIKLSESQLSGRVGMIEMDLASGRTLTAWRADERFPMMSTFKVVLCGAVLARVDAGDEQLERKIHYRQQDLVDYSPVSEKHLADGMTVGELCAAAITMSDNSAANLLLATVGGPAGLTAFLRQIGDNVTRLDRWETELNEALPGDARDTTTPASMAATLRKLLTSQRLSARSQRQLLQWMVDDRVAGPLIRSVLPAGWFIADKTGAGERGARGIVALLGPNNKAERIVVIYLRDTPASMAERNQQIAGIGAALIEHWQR

[3] = biological target: Beta-lactamase OXA-1 (Escherichia coli, UniProt P13661); experiment: Inhibitory activity against Escherichia coli HA209 Class-V OXA-1 type beta-lactamase enzyme
[4] = biological target: Beta-lactamase TEM (Escherichia coli, UniProt P62593); experiment: Inhibitory activity against Escherichia coli HA58R Class-III TEM-1 type beta-lactamase enzyme
[5] = biological target: T3, Beta-lactamase (Klebsiella oxytoca, UniProt Q8RT60); experiment: Inhibitory activity against Klebsiella oxytoca HC7 Class-IV K1 type beta-lactamase enzyme
T3 sequence (Q8RT60 whole entry): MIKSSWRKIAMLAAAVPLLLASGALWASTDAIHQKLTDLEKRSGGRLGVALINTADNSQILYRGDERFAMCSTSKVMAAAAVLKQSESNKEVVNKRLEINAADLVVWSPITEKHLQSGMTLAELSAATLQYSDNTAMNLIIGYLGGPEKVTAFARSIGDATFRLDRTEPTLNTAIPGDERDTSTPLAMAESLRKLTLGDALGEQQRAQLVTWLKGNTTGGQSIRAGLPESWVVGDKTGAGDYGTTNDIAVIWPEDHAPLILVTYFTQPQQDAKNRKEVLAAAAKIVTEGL

[6] = biological target: Beta-lactamase (Enterobacter cloacae, UniProt P05364); experiment: Inhibitory activity against Enterobacter cloacae HC8 Class-I beta-lactamase enzyme type P99
[7] = biological target: Beta-lactamase (Staphylococcus aureus, UniProt P00807); experiment: Inhibitory activity against Staphylococcus aureus CJ8 beta-lactamase enzyme
[8] = biological target: Beta-lactamase (Citrobacter freundii, UniProt P05193); experiment: Inhibitory activity against Citrobacter freundii 87470 Class-I beta-lactamase enzyme
Chain of Beta-lactamase (Citrobacter freundii, UniProt P05193) (P05193 whole entry): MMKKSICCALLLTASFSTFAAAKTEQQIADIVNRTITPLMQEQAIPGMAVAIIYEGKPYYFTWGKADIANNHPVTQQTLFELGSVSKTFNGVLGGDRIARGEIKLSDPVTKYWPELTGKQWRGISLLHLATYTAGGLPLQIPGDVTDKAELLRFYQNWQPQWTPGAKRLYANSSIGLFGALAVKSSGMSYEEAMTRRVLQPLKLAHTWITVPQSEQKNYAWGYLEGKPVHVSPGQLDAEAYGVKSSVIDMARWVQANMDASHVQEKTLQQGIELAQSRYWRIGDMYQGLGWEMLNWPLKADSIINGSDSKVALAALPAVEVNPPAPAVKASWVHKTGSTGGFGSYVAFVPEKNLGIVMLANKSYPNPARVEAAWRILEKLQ

Chain of Beta-lactamase TEM (P62593 whole entry): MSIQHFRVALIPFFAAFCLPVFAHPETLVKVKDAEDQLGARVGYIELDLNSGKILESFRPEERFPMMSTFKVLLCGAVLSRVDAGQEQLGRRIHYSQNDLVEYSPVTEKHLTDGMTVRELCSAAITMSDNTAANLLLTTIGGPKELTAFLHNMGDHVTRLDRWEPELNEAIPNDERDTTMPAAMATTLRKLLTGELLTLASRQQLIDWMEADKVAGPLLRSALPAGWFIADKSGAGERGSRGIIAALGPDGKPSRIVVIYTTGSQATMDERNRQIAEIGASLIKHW
Chain of Beta-lactamase OXA-1 (P13661 whole entry): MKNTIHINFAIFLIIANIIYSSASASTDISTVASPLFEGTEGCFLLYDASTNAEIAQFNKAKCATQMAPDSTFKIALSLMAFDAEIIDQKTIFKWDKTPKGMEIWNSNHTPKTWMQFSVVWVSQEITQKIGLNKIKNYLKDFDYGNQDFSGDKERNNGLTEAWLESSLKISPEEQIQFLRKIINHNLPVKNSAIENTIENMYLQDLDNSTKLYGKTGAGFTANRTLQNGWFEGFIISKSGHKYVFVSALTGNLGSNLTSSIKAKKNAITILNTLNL
Chain of Beta-lactamase (Enterobacter cloacae, UniProt P05364) (P05364 whole entry): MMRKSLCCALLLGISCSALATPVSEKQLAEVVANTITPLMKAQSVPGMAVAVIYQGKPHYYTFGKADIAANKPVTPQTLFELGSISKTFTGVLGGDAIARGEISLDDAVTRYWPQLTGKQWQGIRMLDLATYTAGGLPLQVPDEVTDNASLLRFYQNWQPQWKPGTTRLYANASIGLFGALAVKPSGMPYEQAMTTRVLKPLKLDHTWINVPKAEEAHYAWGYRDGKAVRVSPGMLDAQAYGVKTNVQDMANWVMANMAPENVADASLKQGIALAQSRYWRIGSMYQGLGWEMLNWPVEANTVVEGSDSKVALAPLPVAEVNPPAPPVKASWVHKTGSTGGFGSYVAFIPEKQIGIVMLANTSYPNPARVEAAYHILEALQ
Chain of Beta-lactamase (Staphylococcus aureus, UniProt P00807) (P00807 whole entry): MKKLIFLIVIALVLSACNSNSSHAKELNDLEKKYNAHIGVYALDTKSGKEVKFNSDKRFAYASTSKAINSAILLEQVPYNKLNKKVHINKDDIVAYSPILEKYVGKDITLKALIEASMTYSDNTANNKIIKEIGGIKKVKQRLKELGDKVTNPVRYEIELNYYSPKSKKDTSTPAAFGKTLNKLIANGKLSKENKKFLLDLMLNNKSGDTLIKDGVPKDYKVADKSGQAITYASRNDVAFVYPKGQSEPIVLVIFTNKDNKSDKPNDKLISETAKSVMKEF

For `Cn1ccnc1SC[C@@]1(C)[C@H](C(=O)O)N2C(=O)C[C@H]2S1(=O)=O`, the IC50 [1] was 2.9 nM, the IC50 [2] was 926 nM and the IC50 [3] was 463 nM.
`Cn1nnnc1SC[C@@]1(C)[C@H](C(=O)O)N2C(=O)C[C@H]2S1(=O)=O` showed an IC50 [1] of 8.64 nM, an IC50 [2] of 72 nM and an IC50 [3] of 92.1 nM. For the same molecule, the IC50 [4] was 17.3 nM.
Molecule `C[C@@]1(CSc2nc3ccccc3s2)S[C@@H]2[C@H](Br)C(=O)N2[C@H]1C(=O)O` has an IC50 [1] of 56.1 nM, an IC50 [2] of 141 nM and an IC50 [3] of 1410 nM. For the same molecule, the IC50 [4] was 35.9 nM.
`C[C@]1(CSc2nc3ccccc3o2)[C@H](C(=O)O)N2C(=O)C[C@H]2S1(=O)=O` gave an IC50 [3] of 83.7 nM and an IC50 [4] of 10.5 nM.
For `Cn1nnnc1SC[C@]1(C)S[C@@H]2[C@H](Br)C(=O)N2[C@H]1C(=O)O`, the IC50 [1] was 50.7 nM, the IC50 [2] was 1010 nM and the IC50 [3] was 8120 nM. The IC50 [4] was 101 nM.
In the case of `Cn1cnnc1SC[C@@]1(C)[C@H](C(=O)O)N2C(=O)C[C@H]2S1(=O)=O`, the IC50 [1] is reported as 2.89 nM, the IC50 [2] is reported as 577 nM and the IC50 [4] is reported as 72.2 nM.
Work on `C[C@@]1(CSc2nc3ccccc3o2)S[C@@H]2[C@H](Br)C(=O)N2[C@H]1C(=O)O` yielded an IC50 [5] of 1160 nM, an IC50 [6] of 18400 nM and an IC50 [2] of 147 nM. It also gave an IC50 [7] of 116 nM, an IC50 [4] of 30.3 nM and an IC50 [8] of 14700 nM.
`C[C@]1(CSC2=NCCS2)[C@H](C(=O)O)N2C(=O)C[C@H]2S1(=O)=O` gave an IC50 [1] of 2.85 nM, an IC50 [2] of 371 nM and an IC50 [3] of 114 nM. The IC50 [4] was 22.8 nM.
`C[C@]1(CSc2nc3ccccc3[nH]2)[C@H](C(=O)O)N2C(=O)C[C@H]2S1(=O)=O` showed an IC50 [2] of 655 nM and an IC50 [4] of 65.5 nM.
`Cn1ccnc1SC[C@]1(C)S[C@@H]2[C@H](Br)C(=O)N2[C@H]1C(=O)O` showed an IC50 [1] of 63.7 nM, an IC50 [2] of 51 nM and an IC50 [3] of 10200 nM. It also gave an IC50 [4] of 15.3 nM.
With `O=C(O)[C@H]1/C(=C/CO)O[C@@H]2CC(=O)N21` [CLAVULANIC ACID] the IC50 [1] was 30.1 nM.
With `CC1(C)[C@H](C(=O)O)N2C(=O)C[C@H]2S1(=O)=O` [SULBACTAM] the IC50 [2] was 1710 nM and the IC50 [3] was 1370 nM.
In the case of `C[C@]1(Cn2ccnn2)[C@H](C(=O)O)N2C(=O)C[C@H]2S1(=O)=O` [TAZOBACTAM], the IC50 [1] is reported as 33.3 nM and the IC50 [2] is reported as 133 nM.
